Each compound was assayed on deac1 protein (assay: Substrate specificity and stereoselectivity of the purified deac1 enzyme (free amino acid formed, amino acid analyzer)). Details: 5 μg purified enzyme, 25 mM substrate, pH 7.5, 37° C., 1 h; specific activity with hippuric acid set equal to 100%.
Format: biochemical, Stenotrophomonas sp.
Description: For the investigation of substrate specificity and stereospecificity of the deac1 protein, 5 μg each of purified enzyme were incubated in 20 μl batches in 10 mM NaCl, 10 mM Na phosphate, pH=7.5 with 25 mM each of the N-acetyl-L-amino acids or of the corresponding D enantiomers mentioned in Table 1. For comparison, hippuric acid (N-benzoylglycine), the natural substrate of deacetylase, was employed. […] Table 1 indicates the relative deacetylase activities for the L-enantiomers of the various substrates.

| Structure (SMILES) | Rel. activity [%] |
| --- | --- |
| CSCC[C@H](NC(C)=O)C(=O)O [N-Ac-L-methionine] | 0 |
| CC(=O)N[C@@H](Cc1ccccc1)C(=O)O [N-Ac-L-phenylalanine] | 24 |
| CC(=O)N1CCC[C@H]1C(=O)O [N-Ac-L-proline] | 0 |
| CC(=O)N[C@@H](CO)C(=O)O [N-Ac-L-serine] | 4 |
| CC(=O)N[C@@H](Cc1c[nH]c2ccccc12)C(=O)O [N-Ac-L-tryptophan] | 0.4 |

Same assay, conditions: 25 mM substrate, 37° C., 1 h

| Structure (SMILES) | cleavage of substrate by the deac1 enzyme (in words) |
| --- | --- |
| O=C(O)CNC(=O)c1ccccc1 [Hippuric acid (N-benzoylglycine), N-benzoylglycine, reference compound] | cleaves |
| CC(=O)N[C@@H](CCC(=O)O)C(=O)O [N-Ac-L-glutamic acid] | cleaves |
| CC(=O)N[C@@H](CCC(N)=O)C(=O)O [N-Ac-L-glutamine] | cleaves |
| CC(=O)N[C@@H](Cc1c[nH]cn1)C(=O)O [N-Ac-L-histidine] | cleaves |
| CC(=O)N[C@@H](CC(C)C)C(=O)O [N-Ac-L-leucine] | cleaves |
| CC(=O)N[C@@H](CCCN)C(=O)O [N-Ac-L-ornithine] | cleaves |
| CC(=O)N[C@@H](Cc1ccccc1)C(=O)O [N-Ac-L-phenylalanine] | cleaves |
| CC(=O)N[C@@H](CCP(C)(=O)O)C(=O)O [N-Ac-L-phosphinothricin] | cleaves |
| CC(=O)NCC(=O)O [N-Ac-glycine] | cleaves |
